Converted amounts (≈) assume the structure as drawn.

The series is described as follows: physchem. To be noted: pH 7.4 buffer.

Turning to `Cn1cc(C2=C(c3cccc(NCC(O)CO)c3)C(=O)NC2=O)c2cc(F)ccc21` (centres undefined), the solubility (thermodynamic) stood at 4.4 µM (≈ 1.8 µg/mL).

`CC(=O)n1c2ccccc2c2cc(NC(=O)CCc3ccncc3)ccc21` returned a solubility (thermodynamic) of 2.1 µM (≈ 0.751 µg/mL).

In the case of `Cc1cccc2c3cc(NC(=O)N4CCOCC4)ccc3n(C(C)C)c12`, the thermodynamic solubility was 5.1 µM (≈ 1.79 µg/mL).

In the case of `CN(C)CCCN(C)c1nc2cc(Cl)c(Cl)cc2nc1/C=C/c1ccccc1`, the solubility (thermodynamic) was determined as 5.8 µM (≈ 2.41 µg/mL).

`Nc1ncc(-c2cnn(CCO)c2)cc1-c1nc2ccccc2o1` displayed a thermodynamic solubility of 3.1 µM (≈ 0.996 µg/mL).

Consider `Cc1cc2n[nH]c(=O)n2c2cc(-c3ccc([S+](C)[O-])cc3)ccc12` (centres undefined), for which the solubility (thermodynamic) was determined as 1.9 µM (≈ 0.641 µg/mL).

For `CN(c1ccnc(Nc2cccc(S(C)(=O)=O)c2)n1)c1c(Cl)ccc2c1OCO2`, the solubility (thermodynamic) turned out to be 3.5 µM (≈ 1.52 µg/mL).

For `COc1ccc2c(c1)Sc1ccccc1N2`, the solubility (thermodynamic) was 2.4 µM (≈ 0.55 µg/mL).

`O=S(=O)(Nc1ccccn1)c1ccc(C2CCCCC2)cc1`: the thermodynamic solubility amounted to 2.8 µM (≈ 0.886 µg/mL).

As for `CCn1c2ccccc2c2cc(NC(=O)c3cc(C)on3)ccc21`, the solubility (thermodynamic) was found to be 2.5 µM (≈ 0.798 µg/mL).

In the case of `O=C(NCCSCc1c(F)cccc1Cl)Nc1ccccc1`, the thermodynamic solubility was 5.1 µM (≈ 1.73 µg/mL).

Turning to `c1ccc(CSc2nnc(-c3ccco3)c(-c3ccco3)n2)cc1`, the solubility (thermodynamic) was 5.2 µM (≈ 1.74 µg/mL).

On to `COc1ccc([C@H](CC(=O)O)N2CCN(CCCc3ccc4c(n3)NCCC4)C2=O)cn1`, for which the thermodynamic solubility worked out at 2.5 µM (≈ 1.1 µg/mL).

Regarding `CCOC(=O)Cc1csc(NC(=O)Nc2ccc(Cl)cc2)n1`, the thermodynamic solubility is 2.6 µM (≈ 0.883 µg/mL).

The compound `CN(C(=O)c1ccco1)c1nnc(C23CC4CC(CC(C4)C2)C3)s1` had a thermodynamic solubility of 3 µM (≈ 1.03 µg/mL).

As to `O=S(=O)(NCc1cc(-c2ccccc2Cl)no1)c1ccc(Cl)cc1`, the solubility (thermodynamic) is 3.1 µM (≈ 1.19 µg/mL).

`O=S(=O)(c1ccc(N2CCC(c3ccc(Cl)cc3)=N2)cc1)N(CCO)CCO` registered a solubility (thermodynamic) of 2.2 µM (≈ 0.933 µg/mL).

As to `Cc1onc(-c2ccccc2)c1C(=O)OCC(=O)c1ccccc1`, the solubility (thermodynamic) came out at 2 µM (≈ 0.643 µg/mL).

Take `CC(=O)Nc1nc(-c2ccc(Br)s2)cs1`: the solubility (thermodynamic) stood at 2.2 µM (≈ 0.667 µg/mL).

Compound `O=C(c1ccc(F)cc1)C1CCN(C(=O)Nc2ccc(F)cc2)CC1` had a solubility (thermodynamic) of 4.5 µM (≈ 1.55 µg/mL).

In turn, `CN(c1ccc(Cl)c(CO)c1)c1ccnc(Nc2cc(N3CCOCC3)cc(N3CCOCC3)c2)n1` had a thermodynamic solubility of 3.1 µM (≈ 1.58 µg/mL).

`Cc1ccc(Oc2ccc(C(=O)N(C)Cc3ccncc3)cc2)cc1` yielded a thermodynamic solubility of 1.9 µM (≈ 0.632 µg/mL).

Turning to `COc1cc(N2CCNC(=O)C2)ccc1Nc1ncc(Cl)c(-c2cnc3ccccn23)n1`, the thermodynamic solubility is 4.9 µM (≈ 2.2 µg/mL).

On to `COc1cc(N2CCCN(C(C)=O)CC2)ccc1Nc1ncc(Cl)c(-c2cnc3ccccn23)n1`, for which the thermodynamic solubility was 2.4 µM (≈ 1.18 µg/mL).

Compound `COc1cc(N2CC3COCC(C2)N3)ccc1Nc1ncc(Cl)c(-c2cnc3ccccn23)n1` returned a solubility (thermodynamic) of 2.6 µM (≈ 1.24 µg/mL).

`COc1cc(N2CCN(CC(=O)N(C)C)CC2)ccc1Nc1ncc(Cl)c(-c2cnc3ccccn23)n1`: the solubility (thermodynamic) amounted to 5 µM (≈ 2.61 µg/mL).

Take `COc1cc(N2CCN(C(C)=O)CC2)ccc1Nc1ncc(Cl)c(-c2cnc3c(F)cccn23)n1`: the solubility (thermodynamic) was found to be 2.8 µM (≈ 1.39 µg/mL).

Take `O=C(Nc1cccc(O)c1)c1ccc(OCCCN2CCCC2)cc1OCc1ccc(F)cc1`: the thermodynamic solubility was determined as 5 µM (≈ 2.32 µg/mL).

`C[C@@H](c1ccc(-c2ccc(F)cc2F)cc1)N1CC[C@](CCO)(c2ccc(F)cc2)OC1=O` yielded a solubility (thermodynamic) of 2.5 µM (≈ 1.14 µg/mL).

On to `C[C@@H](c1ccc(-c2ccc(F)cc2F)cc1)N1CC[C@@](CCO)(c2ccc(F)cc2)OC1=O`, for which the thermodynamic solubility came out at 5.2 µM (≈ 2.37 µg/mL).

For `COc1cc2ncnc(Nc3cc(NC(=O)c4ccccc4)c(Cl)cc3F)c2cc1OC`, the thermodynamic solubility came out at 1.9 µM (≈ 0.86 µg/mL).

With `Cc1ccc(C(=O)C2CCN(S(=O)(=O)c3c(C)noc3C)CC2)cc1`, the thermodynamic solubility amounted to 2.1 µM (≈ 0.761 µg/mL).

In turn, `Cc1ccc(C(=O)C(=O)c2ccc(C)cc2)cc1` had a thermodynamic solubility of 2.1 µM (≈ 0.5 µg/mL).

`COc1cc2ncnc(Nc3cnn(CC(=O)Nc4cccc(F)c4)c3)c2cc1OC` yielded a thermodynamic solubility of 2 µM (≈ 0.845 µg/mL).

The compound `COc1cccc(NC(=O)Cn2cc(Nc3ncnc4cc(OC)c(OC)cc34)cn2)c1` returned a thermodynamic solubility of 4.4 µM (≈ 1.91 µg/mL).

`COc1cccc(NC(=O)Cn2cc(Oc3ncnc4cc(OC)c(OC)cc34)cn2)c1` registered a solubility (thermodynamic) of 2.9 µM (≈ 1.26 µg/mL).

Consider `COCCOc1cc2c(Oc3cnn(CC(=O)Nc4cccc(OC)c4)c3)ncnc2cc1OC`, for which the thermodynamic solubility worked out at 3.1 µM (≈ 1.49 µg/mL).

`COc1cccc(NC(=O)Cc2ccc(Oc3ncnc4cc(OC)c(OC)cc34)cc2)c1` returned a solubility (thermodynamic) of 2 µM (≈ 0.891 µg/mL).

Turning to `CN1CCC(Oc2cccc3ncnc(Nc4ccc(OCc5cscn5)c(Cl)c4)c23)CC1`, the solubility (thermodynamic) was determined as 4.9 µM (≈ 2.36 µg/mL).

`CCn1cc(NC(=O)Cc2ccc(Oc3ccnc4cc(OC)ccc34)cc2OC)cn1` returned a thermodynamic solubility of 3.2 µM (≈ 1.38 µg/mL).

The compound `CCc1cc(NC(=O)Cc2ccc(Oc3ccnc4cc(OC)ccc34)cc2OC)no1` displayed a solubility (thermodynamic) of 4.2 µM (≈ 1.82 µg/mL).

Regarding `COc1cc2c(Nc3ccc(NC(=O)c4ccccc4)cc3)ncnc2cc1OCCCN1CCOCC1`, the thermodynamic solubility is 2.5 µM (≈ 1.28 µg/mL).

With `COc1cc(OC2CCN(C)CC2)c2c(Nc3ccc(F)c(Cl)c3)ncnc2c1`, the solubility (thermodynamic) came out at 2.1 µM (≈ 0.875 µg/mL).

`O=C(Nc1ccc(N2CC[S+]([O-])CC2)nc1)c1nnc(Nc2ccccc2F)o1` had a thermodynamic solubility of 2.5 µM (≈ 1.04 µg/mL).

Compound `CCc1ccc(-c2cc(O)c3ccccc3n2)cc1` returned a thermodynamic solubility of 4 µM (≈ 0.997 µg/mL).

`COc1cc2ncnc(Nc3ccc(F)c(Cl)c3)c2cc1CN1CCC[C@@H]1C(N)=O` gave a solubility (thermodynamic) of 5.1 µM (≈ 2.19 µg/mL).

In turn, `CC(C)(C)OC(=O)N1CCN(c2cnc(OCc3ccc(S(C)(=O)=O)cc3)cn2)CC1` displayed a thermodynamic solubility of 4.7 µM (≈ 2.11 µg/mL).

For the compound `C[C@H]1CN(C(=O)OC(C)(C)C)CCN1c1ncc(OCc2ccc(S(C)(=O)=O)cc2)cn1`, the solubility (thermodynamic) turned out to be 2.3 µM (≈ 1.06 µg/mL).

The compound `C[C@@H]1CN(c2ncc(OCc3ccc(S(C)(=O)=O)cc3)cn2)CCN1C(=O)OC(C)(C)C` had a solubility (thermodynamic) of 3.3 µM (≈ 1.53 µg/mL).

In turn, `C[C@H]1CN(c2ncc(OCc3ccc(S(C)(=O)=O)cc3)cn2)CCN1C(=O)OC(C)(C)C` displayed a solubility (thermodynamic) of 2.2 µM (≈ 1.02 µg/mL).

Compound `C[C@@H]1CN(C(=O)OC(C)(C)C)C[C@H](C)N1c1ncc(OCc2ccc(S(C)(=O)=O)cc2)cn1` yielded a thermodynamic solubility of 4.1 µM (≈ 1.95 µg/mL).

Consider `C[C@@H]1CN(C(=O)OC(C)(C)C)CCN1c1ncc(OCC2CCN(S(C)(=O)=O)CC2)cn1`, for which the solubility (thermodynamic) turned out to be 5 µM (≈ 2.35 µg/mL).

In turn, `C[C@@H]1CN(C(=O)OC(C)(C)C)CCN1c1ncc(OCc2ccc(S(C)(=O)=O)cc2F)cn1` came in with a solubility (thermodynamic) of 2.2 µM (≈ 1.06 µg/mL).

Compound `CCc1cc(Nc2nc(NCc3cc(-c4ccccn4)no3)ncc2Br)n[nH]1` yielded a thermodynamic solubility of 3.8 µM (≈ 1.68 µg/mL).

`COc1cc(CCc2cc(Nc3ccnc(NCc4cc(C)on4)n3)n[nH]2)cc(OC)c1` had a thermodynamic solubility of 4.3 µM (≈ 1.87 µg/mL).

In the case of `Cc1c(Cl)c(C(F)(F)F)nn1CC(=O)N1CCN(c2ccc(F)cc2)CC1`, the thermodynamic solubility came to 1.9 µM (≈ 0.769 µg/mL).

Compound `Cc1cc(C)cc(-c2[nH]c3sc(C(C)(C)C(=O)N4C5CCC4CC5)cc3c2CCN2CCC(CC(=O)N3CCOCC3)CC2)c1` registered a solubility (thermodynamic) of 1.9 µM (≈ 1.2 µg/mL).

Consider `OC1CCN(CCOc2n[nH]c3ncnc(Nc4ccc(OCc5cccc(F)c5)c(Cl)c4)c23)CC1`, for which the thermodynamic solubility was found to be 4.5 µM (≈ 2.31 µg/mL).

Regarding `C[C@H](Oc1cccc2ncnc(Nc3ccc(OCc4ccccn4)c(Cl)c3)c12)C(=O)N(C)C`, the thermodynamic solubility was 2.9 µM (≈ 1.39 µg/mL).

Turning to `C[C@@H](Oc1cccc2ncnc(Nc3ccc4c(cnn4Cc4ccccn4)c3)c12)C(N)=O`, the solubility (thermodynamic) amounted to 4 µM (≈ 1.76 µg/mL).

As for `C[C@@H](Oc1cccc2ncnc(Nc3ccc4c(cnn4Cc4cccc(F)c4)c3)c12)C(=O)N(C)C`, the solubility (thermodynamic) was 2.6 µM (≈ 1.26 µg/mL).

`CNC(=O)c1ccc(CN2CCC(c3ccc(C(=O)Nc4ccccc4N)cc3)CC2)cc1`: the solubility (thermodynamic) amounted to 4.8 µM (≈ 2.12 µg/mL).

`Cc1ccc(Oc2ccc(Nc3ncnc4cccc(O[C@H](C)C(=O)NCCO)c34)cc2C)cn1` showed a solubility (thermodynamic) of 4.2 µM (≈ 1.99 µg/mL).

Compound `Clc1cc(Nc2ncnc3[nH]nc(OCCN4CCOCC4)c23)ccc1OCc1ccccn1` returned a thermodynamic solubility of 2 µM (≈ 0.964 µg/mL).

Regarding `CO[C@]1(c2cc(F)cc(S(=O)(=O)c3ccc(/C(C)=N/O)cc3)c2)CCO[C@@H](C)C1`, the thermodynamic solubility amounted to 4.7 µM (≈ 1.98 µg/mL).

Consider `O=C(N[C@@H](Cc1ccccc1)C(=O)N1CCC(O)CC1)c1cc2cc(Cl)ccc2[nH]1`, for which the thermodynamic solubility turned out to be 5.1 µM (≈ 2.17 µg/mL).

For the compound `CC(C)n1c2ccccc2c2c(F)c(NC(=O)N3CCOCC3)c(F)cc21`, the solubility (thermodynamic) is 4.6 µM (≈ 1.72 µg/mL).

`CCN(C(=O)Cc1ccc(S(C)(=O)=O)cc1)C1CCN(CCC(c2ccccc2)c2ccc(NS(=O)(=O)Cc3ccccc3)cc2)CC1` (centres undefined) gave a solubility (thermodynamic) of 2.3 µM (≈ 1.58 µg/mL).

Take `Cc1c(Br)sc2nc(O)c(-c3ccccc3)c(O)c12`: the thermodynamic solubility came out at 3.9 µM (≈ 1.31 µg/mL).

Consider `COC[C@@H](C(N)=O)N(C)Cc1cc2c(Nc3cccc(Cl)c3F)ncnc2cc1OC`, for which the thermodynamic solubility came out at 3.8 µM (≈ 1.7 µg/mL).

In turn, `COc1ccc(I)c(Sc2nc3c(N)ncnc3n2CCNCC(C)(C)C)c1` registered a solubility (thermodynamic) of 4 µM (≈ 2.05 µg/mL).

`COc1cc(Nc2ncnc3[nH]nc(OCCN4CCC(O)CC4)c23)ccc1OCc1cccc(F)c1` yielded a thermodynamic solubility of 5.6 µM (≈ 2.85 µg/mL).

`Cc1ccc(Oc2ccc(Nc3ncnc4cccc(O[C@H](C)C(=O)N5CCOCC5)c34)cc2Cl)cn1` returned a thermodynamic solubility of 2.3 µM (≈ 1.2 µg/mL).

Compound `CN(C)C(=O)[C@H](Cc1ccccc1)NC(=O)c1cc2cc(Cl)ccc2[nH]1` had a thermodynamic solubility of 2.6 µM (≈ 0.962 µg/mL).

`CC(C)Oc1cc(OCCN2CCOCC2)cc2ncnc(Nc3c(Cl)ccc4c3OCO4)c12`: the thermodynamic solubility stood at 4.4 µM (≈ 2.14 µg/mL).

`COc1cc2ncnc(Nc3cc(O)c(C)cc3F)c2cc1OC` gave a solubility (thermodynamic) of 2.2 µM (≈ 0.725 µg/mL).

Compound `CCOC(=O)C1CCN(c2ncnc(Oc3ccc(CCC(C)=O)cc3)c2[N+](=O)[O-])CC1` showed a thermodynamic solubility of 1.9 µM (≈ 0.841 µg/mL).

In turn, `COc1cc2ncnc(Nc3ccc(C)c(O)c3)c2cc1OC` yielded a thermodynamic solubility of 4.4 µM (≈ 1.37 µg/mL).

Consider `CNS(=O)(=O)c1ccc(Nc2nccc(-c3cnc(C)n3C)n2)cc1`, for which the solubility (thermodynamic) stood at 2.7 µM (≈ 0.968 µg/mL).

`CC1(C)Oc2ncnc(N)c2N=C1c1ccc(C23CCC(C(=O)O)(CC2)CC3)cc1` registered a thermodynamic solubility of 3.2 µM (≈ 1.3 µg/mL).

In turn, `COc1cc2nccc(Nc3ccc(Oc4ccccc4)cc3)c2cc1OC` came in with a solubility (thermodynamic) of 2.6 µM (≈ 0.968 µg/mL).

`COc1cc2ncnc(Nc3ccc(F)c(Cl)c3)c2cc1OCCCn1ccnc1` came in with a solubility (thermodynamic) of 2.5 µM (≈ 1.07 µg/mL).

Compound `Nc1nc(Nc2ccc(Cl)cc2)cc(-c2ccccc2)n1` displayed a thermodynamic solubility of 2.2 µM (≈ 0.653 µg/mL).

In the case of `O=C(Nc1cc(Cl)cc2c1[nH]c1cnccc12)c1cccnc1`, the thermodynamic solubility was 3.9 µM (≈ 1.26 µg/mL).
